Experimental findings from patent publication US9249159B2, “Composition for treating hepatitis C virus, regulating phosphorylation of replicase” (Industry-Academic Cooperation Foundation, Yonsei University, priority 2011, dated 2016) are described below.

Series [1] concerns genotype 1b HCV subgenomic replicon (R-1 cell line). The series can be described thus: HCV replication (HCV RNA by real-time RT-PCR, NS5B protein by Western blot) in R-1 subgenomic replicon cells. The format is cell-based, hepatitis C virus genotype 1b. The settings on record: 48 hours. The source says:
In order to check a PRK2 phosphorylation inhibition effect of the novel inhibitors obtained in Example 1, R-1 cell line harboring HCV subgenomic replicons was used.
The R-1 cell line was comprised of cis-acting RNA elements of 5′ and 3′-end untranslated regions (UTR) essential for replication of HCV RNA, a selection marker inserted to select a replicated RNA into a portion from which a structural protein coding site was removed, and a non-structural protein (NS3-NS5B)-coding gene required for replication. In the replicon, the selection marker was expressed by the HCV 5′-UTR and internal ribosome entry site (IRES) as a part of a coding gene of a core protein as a structural protein and capsid protein, and HCV non-structural proteins were expressed by IRES of EMCV. In order to obtain replicon cells, a HCV subgenomic replicon RNA was obtained by means of in vitro transcription by using a T7 RNA polymerase, free ribonucleotide was removed by using a spin column, and introduced into a hepatocellular carcinoma cell line by electroporation. In the presence of G418, a stable cell line, i.e. a cell line showing a resistance to G418 through replication of HCV subgenome, was obtained. Expression of the HCV non-structural proteins in this cell line was analyzed by Western blot to confirm that replication was being carried out, and the R-1 cell line was constructed. It was observed that an HCV RNA copy number was about 10^7 copies/mL by a quantitative real-time PCR analysis using a TaqMan probe. The R-1 cell line was a cell line in which HCV RNA replication was being carried out, and thus it could be used to evaluate an HCV replication inhibition effect of a PRK2 activity inhibitor.
Then, after the R-1 cell line was treated with each of 5 screened PRK2 inhibitors, HA1077 currently and clinically used as a PRK2 activity inhibitor, and Y27632 having a PRK2 activity inhibition effect at a final concentration of 20 μM for 48 hours, levels of HCV NS5B protein and HCV RNA in cell lysates (50 μg) were analyzed by Western blot and real-time RT-PCR.
(§1) To do so, after the two cell lines were treated with the compound #17 at higher concentrations (60 and 100 μM) than 20 μM for 48 hours, an HCV RNA genome level was checked by a real-time RT-PCR analysis. A value was a mean±standard deviation (SD) of three independent measurements. HCV RNA titer was quantified by real-time PCR analysis. Three independent experiments were performed in triplicate.
5 derivatives (#18 to #22: refer to FIG. 2) were produced based on the inhibitor #17 showing the best effect. After the R-1 cell line was treated with each of these inhibitors or HA1077 and Y27632 at a final concentration of 20 μM for 48 hours, an HCV RNA genome level was checked by a real-time RT-PCR analysis and expressed in % with respect to a control treated with DSMO. Three independent experiments were conducted repeatedly three times. Data were expressed by mean±SD of the three experiments.
Total RNA was extracted from R-1 or HCV (JFH1)-infected cells using TRIzol LS reagent (Invitrogen, Carlsbad, Calif., USA) and purified according to the manufacturer's instructions. HCV RNA levels were quantified by RT-PCR using a primer pair and TaqMan probe targeting a region within the HCV 5′-UTR as described previously. Cellular glyceraldehyde-3-phosphate dehydrogenase was used as an internal control. Assays were performed using the DyNAmo Probe 2-step qRT-PCR Kit (Finnzymes, Espoo, Finland) and a CHROMO4 continuous fluorescence detector (Bio-Rad, Hercules, Calif., USA), according to the manufacturer's instructions.
Therefore, anti-HCV activity of 17-DMAG in the R-1 cell was tested at a level lower than 50 nM. To do so, the R-1 cell was treated with a vehicle (0.25% DMSO) or 17-DMAG for 72 hours and the cell lysates (50 μg) and antibodies specific to the proteins were immunoblotted to measure levels of the proteins. An anti-α-tubulin antibody (lower end panel) was used as an internal loading control. […]

In series [2] the test system is genotype 2a HCV (JFH1)-infected Huh7 cells. The series can be described thus: HCV RNA level in Huh7 cells infected with HCV (JFH1). The format is cell-based, hepatitis C virus genotype 2a. As to conditions: Huh7 cell infected with HCV (JFH-1), 60 and 100 μM, 48 hours. How it is done:
as §1
Full-length, infectious HCV RNA of the genotype 2a HCV clone JFH1 was prepared by in vitro transcription using the MEGAscript T7 kit (Ambion, Austin, Tex., USA) and electroporated into Huh7 cells as described previously. Briefly, at 72 h post electroporation, culture medium was collected, cleared by low-speed centrifugation, and passed through a 0.45-μm filter (Millipore, Billerica, Mass., USA) before being used for infection of Huh7 cells. Cells were infected with HCV at a multiplicity of infection of 0.3 by adsorption for 3 h with periodic rocking, then washed three times with phosphate-buffered saline (PBS) and maintained in complete DMEM. […]
Total RNA was extracted from R-1 or HCV (JFH1)-infected cells using TRIzol LS reagent (Invitrogen, Carlsbad, Calif., USA) and purified according to the manufacturer's instructions. HCV RNA levels were quantified by RT-PCR using a primer pair and TaqMan probe targeting a region within the HCV 5′-UTR as described previously. […] Assays were performed using the DyNAmo Probe 2-step qRT-PCR Kit (Finnzymes, Espoo, Finland) and a CHROMO4 continuous fluorescence detector (Bio-Rad, Hercules, Calif., USA), according to the manufacturer's instructions.
In order to analyze whether or not 17-DMAG can inhibit replication in a cell infected with HCV, an experiment was carried out with the genotype 2a HCV infectious clone JFH1, which produces infectious virions in Huh7 or Huh7-derived cell lines. […] After 72 hours, total cellular RNA was extracted and HCV remaining in the infected cell was analyzed by quantitative RT-PCR.

For series [3], the system named is R-1 cell. The series can be described thus: Cytotoxicity / cell viability in R-1 cell. The format is cell-based, human. The settings on record: R-1 cell, 100 μM. How it is done:
(§2) Cytotoxicity of 17-DMAG was measured by using a reagent MTS [3-(4,5-dimethylthiazol-2-yl)-5-(3-carboxylmethoxyphenyl)-2-(4-sulfophenyl)-2H-tetrazolium] (Promega, Madison, Wis., USA) according to the protocols of the manufacturer. The experiment was carried out as follows.
(§3) Huh7 or R-1 cells (2×10^4 cell/well) were seeded in a 96-well plate and treated with 17-DMAG at different concentrations for 72 hours. Then, the culture medium was removed and a MTS substrate dissolved in the culture medium containing 5% FBS was added to each well of the plate. The cells were cultured at 37° C. for 1 hour, and absorbance at 490 nm was read in a 96-well micro plate automatic reading system using GloMax-Multi detection system (Promega).
(§4) An experiment was carried out to check whether or not 17-DMAG inhibited virus RNA replication in an R-1 cell in which autonomous replication of a genotype 1b HCV subgenomic replicon RNA was maintained. Before antiviral activity of 17-DMAG was evaluated, an MTS assay was carried out to evaluate whether or not the drug interfered with cell viability. To be specific, the R-1 cell loaded with a selective HCV subgenomic replicon (upper diagram) and its parental cell line Huh7 were treated with 17-DMAG at a certain concentration for 72 hours, and cell viability was evaluated by the MTS assay.

For series [4], the system named is Huh7 cell. The experiment in a line: Cytotoxicity / cell viability (MTS) in Huh7 cell. Format: cell-based, human. The settings on record: 100 μM. As for the experimental part:
as §2, §3, §4

The target in series [5] is recombinant active PRK2 (Homo sapiens, UniProt Q16513). The experiment in a line: In vitro kinase assay: recombinant PRK2 phosphorylating HCV NS5B. The format is biochemical. The settings on record: gamma-32P ATP and 100 μM ATP, autoradiography. As for the experimental part:
Then, in order to test an HCV NS5B protein phosphorylation inhibition effect of the screened novel PRK2 inhibitor, in vitro kinase assay was carried out.
Using a recombinant active PRK2 and purified HCV NS5B protein as substrates, the screened inhibitors #11 and #17 were treated in the presence of gamma-^32P ATP and 100 μM ATP. The reaction mixture was separated by SDS-PAGE (8% gel), and a result thereof was checked by autoradiography.
Finally, PRK2 and HCV NS5B phosphorylation inhibition effects of the compounds #18, #19, #20, #21 and #22 as the derivatives of the compound #17 were analyzed through in vitro kinase assay.
A 1 μM recombinant PRK2 and 10 μM HCV NS5B were phosphorylated for 30 minutes in the presence of 10 μCi γ-^32P ATP and 100 μM ATP. The reaction mixture was separated by SDS-PAGE (8% gel), and a result thereof was checked by autoradiography.

The structures appear in SMILES notation. “Also recorded” adds a separate entry of the source.

Chain of recombinant active PRK2 (Q16513 whole entry): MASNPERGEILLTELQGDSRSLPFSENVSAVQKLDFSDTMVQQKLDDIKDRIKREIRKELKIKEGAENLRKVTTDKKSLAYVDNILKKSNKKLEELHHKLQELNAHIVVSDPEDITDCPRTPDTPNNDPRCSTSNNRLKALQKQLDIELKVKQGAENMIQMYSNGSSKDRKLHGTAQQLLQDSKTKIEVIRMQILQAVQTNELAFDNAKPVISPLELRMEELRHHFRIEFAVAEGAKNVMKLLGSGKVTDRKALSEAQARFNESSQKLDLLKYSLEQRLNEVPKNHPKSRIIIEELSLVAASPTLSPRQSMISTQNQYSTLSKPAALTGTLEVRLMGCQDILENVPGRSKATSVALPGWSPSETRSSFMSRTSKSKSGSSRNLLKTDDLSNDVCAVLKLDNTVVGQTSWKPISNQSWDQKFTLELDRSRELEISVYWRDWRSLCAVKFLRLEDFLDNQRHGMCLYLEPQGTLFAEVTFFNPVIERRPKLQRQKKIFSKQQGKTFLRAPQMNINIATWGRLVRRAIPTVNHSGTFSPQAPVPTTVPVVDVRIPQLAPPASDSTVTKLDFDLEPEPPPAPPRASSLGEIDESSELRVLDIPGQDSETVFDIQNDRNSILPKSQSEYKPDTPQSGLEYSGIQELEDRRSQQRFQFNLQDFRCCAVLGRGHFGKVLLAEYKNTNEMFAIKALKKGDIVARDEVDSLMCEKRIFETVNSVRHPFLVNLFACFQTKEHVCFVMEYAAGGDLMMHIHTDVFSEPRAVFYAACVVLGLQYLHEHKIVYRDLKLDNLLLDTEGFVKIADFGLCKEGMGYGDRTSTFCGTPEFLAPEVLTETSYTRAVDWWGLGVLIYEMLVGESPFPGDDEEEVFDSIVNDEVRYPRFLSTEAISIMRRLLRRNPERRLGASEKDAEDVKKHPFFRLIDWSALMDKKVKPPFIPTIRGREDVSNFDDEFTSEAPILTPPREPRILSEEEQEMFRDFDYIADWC

On to `O=C1NCCCC1C(=O)Nc1ccncc1` (stereo not drawn) [compound #17, 2-oxo-N-4-pyridinyl-3-piperidinecarboxamide], for which, in series [1] (R-1 cell line, 20 μM), the “decrease of HCV RNA titers with respect to DMSO control” value is “about 50%”. In addition, the “HCV RNA titers” value is listed as “decreased in a dosage-dependent manner” in series [1] (R-1 cell, 60 and 100 μM); “decreased in a dosage-dependent manner; also recorded: slightly higher in a cell infected with JFH-1 than in an HCV subgenomic replicon cell” in series [2]. In addition, the “activity of the cells (cytotoxicity)” value in series [3] and in series [4] was “not greatly inhibited” throughout. In addition, the “inhibition of in vitro phosphorylation of HCV NS5B protein” value in series [5] is given as “inhibit phosphorylation of HCV NS5B protein”.
